In patent US6358517B1, “Cosmetic compositions containing resveratrol and retinoids” (Unilever Home & Personal Care USA, division of Conopco, priority 1999, dated 2002):

Key:
[1] = test system: Cellular Retinoic Acid Binding Protein 2 (CRABP-2); experiment: CRABP-2 expression in human adult skin fibroblasts, Western blot; format: cell-based; conditions: for CRABP-2 expression in skin fibroblasts in combination with resveratrol (in words): retinoid combined with resveratrol, summary of Tables 2A and 2B
Experimental: Human adult fibroblasts obtained from sun-protected inner arm of the […] were used. Cells were grown in 1:1 DMEM/Hams F12 media containing 10% FBS, maintained at 37° C. in a 5% CO2 atmosphere under normal atmospheric oxygen tension. Third passage adult fibroblasts were grown in DMEM media with 10% FBS in 12-well plates at a seeding density of 40,000 cells/ml/well. The cells at 80% confluence were rinsed in serum free and phenol red free (PRF) DMEM media twice. Cells were pretreated with resveratrol for 4 hours was conducted and then dosed with retinoids and incubated for a further 48 hours. After the incubation, the wells were washed twice with 1×PBS and the cell monolayer was harvested in 100 μl cell lysis buffer (contained 1×PBS, 1% TritonX, 0.5% sodium deoxycholate, 0.1% SDS containing protease inhibitor (10 mg/ml PMSF in isopropanol, 10 μl/ml). The suspension was spun at 14000 rpm for 10 minutes, the supernatant collected and an aliquot of this supernatant was used for protein quantification. Protein concentration was determined using Pierce protein kit. The remainder of 1 00ul supernatant (cell lysate) was denatured in a mixture of 40 μl sample buffer (NOVEX) and 0.5% Beta mercaptoethanol (BME) and by boiling the sample for 5 minutes.
(§1) Within the cells, retinol and retinoic acid are bound to specific cellular binding proteins. Two of the major proteins are CRABP-1 and CRABP-2 (Roos et al., Pharmacological reviews: 50, 315-333, 1998). These proteins regulate the intracellular concentration of retinoids by acting as either storage or shuttle proteins in retinoid metabolism. The levels of CRABP protein are regulated by the amount of retinoic acid within the cells. Higher cellular levels of retinoids increase the expression of CRABP-2. Therefore, the amount of this protein in the cells, is a measure of the retinoid activity of the cells. Skin cells contain high levels of CRABP-2 both in the epidermis and the dermis. CRABP-2 response to retinoid administration in fibroblasts in vitro is used as a reproducible measure of retinoid bioactivity that predict human skin responses (Elder et al., J. Invest. Dermatol., 106: 517-521, 1996). Increase in CRABP-2 is also associated with increased epidermal differentiation, and dermal retinoid action. Therefore, in these studies we used CRABP-2 expression of fibroblasts and pig skin epidermis as a measure of retinoid activity leading to increased epidermal differentiation (skin conditioning and dry skin benefit) and dermal collagen and extracellular matrix synthesis (antiaging, anti wrinkling benefits).
To measure the levels of CRABP-2 in the fibroblast and pig skin extracts prepared as described above, the cell supernatant was re-suspended in 4×sample buffer and 10% BME, boiled for 5 minutes and used for western blotting. Equal amounts of protein were loaded onto 16% Tris-glycine gels for CRABP-2 protein analysis by SDS-PAGE and Western Immuno-blotting. The gels were transferred to PVDF membranes and Western Blotting was carried out using monoclonal antibodies to CRABP-2 according to standard procedures. The CRABP-2 protein band was visualized in the Western Blots using the chemiluminescence system obtained from Boehringer Mannheim (Indianopolis, Ind.). The bands in the film were quantified by densitometric scanning, the data from triplicate samples were calculated as % of control and expressed in the following tables as % increase over control (with control as 100%) +/− standard deviation. […]

[2] = test system: Cellular Retinoic Acid Binding Protein 2 (CRABP-2); experiment: CRABP-2 expression in pig skin organ culture (epidermis), Western blot; format: cell-based; conditions: for effects on CRABP-2 expression (in words): alone, pig skin epidermis, summary of Table 1
Experimental: 7 mm pig skin biopsies were taken, plated in serum free DMEM, and incubated for 2 days. The media was then switched to phenol-red free media. The biopsies were topically treated with resveratrol for 24 hrs in 5 μl ethanol per biopsy. After 24 hours, retinoids were topically applied to the biopsies. The treated biopsies were incubated for 4 days thereafter. After treatment phase, the biopsies were rinsed in 1×phosphate-buffer twice and then frozen at −20° C. for future use. The epidermis and dermis was separated by freezing and scraping off the epidermis. The epidermis was collected and homogenized in lysis buffer (contains 1×PBS, 1% TritonX, 0.5% sodium deoxycholate, 0.1% SDS containing protease inhibitor (10 mg/ml PMSF in isopropanol at 10 μl/ml, Aprotinin 30 μl/ml and 100 mM sodium orthovanadate at 10 μl/ml). This homogenate was then spun at 14000 rpm and the supernatant was collected for determining protein (aliquot of the supernatant for protein determination).
as §1, with “Two of the major proteins are CRABP-1 and CRABP-2 (Roos et al., Pharmacological reviews: 50, 315-333, 1998).” left out, “CRABP-2 response to retinoid administration in fibroblasts in vitro is used as a reproducible measure of retinoid bioactivity that predict human skin responses (Elder et al., J. Invest. Dermatol., 106: 517-521, 1996).” left out
To measure the levels of CRABP-2 in the fibroblast and pig skin extracts prepared as described above, the cell supernatant was re-suspended in 4×sample buffer and 10% BME, boiled for 5 minutes and used for western blotting. […] The gels were transferred to PVDF membranes and Western Blotting was carried out using monoclonal antibodies to CRABP-2 according to standard procedures. The CRABP-2 protein band was visualized in the Western Blots using the chemiluminescence system obtained from Boehringer Mannheim (Indianopolis, Ind.). The bands in the film were quantified by densitometric scanning, the data from triplicate samples were calculated as % of control and expressed in the following tables as % increase over control (with control as 100%) +/− standard deviation.

[3] = Table 2B, 10 μM Retinoic acid alone
[4] = Homo sapiens, Skin fibroblast, Table 2A, 100 nM alone, read-out: % of Control
[5] = Table 2B, 10 μM Resveratrol alone

SMILES	activity at 0.1 µM [1, 4] [%]	CRAB-2 production ([1]; Table 2A, 100 nM alone)	% as Control ([1]; Table 2B, 1 μM alone)	CRABP-2 production ([1]; Table 2B, 1 μM alone)	% as Control ([1]; Table 3, 100 nM alone)	CRABP-2 production ([1]; Table 3, 100 nM alone)	effects on CRABP-2 expression (in words) [2]	CRABP-2 expression in skin fibroblasts in combination with resveratrol (in words) [1]	other results
CC1=C(/C=C/C(C)=C/C=C/C(C)=C/C(=O)O)C(C)(C)CCC1 [Retinoic acid]									activity at 0.001 µM ([1]; Homo sapiens, Skin fibroblast, Table 2A, 1 nM alone, read-out: % of Control): 132%; activity at 0.01 µM ([1]; Homo sapiens, Skin fibroblast, Table 2A, 10 nM alone, read-out: % of Control): 165%; CRAB-2 production ([1]; Table 2A, 1 nM alone): 2.056 +/− 0.50; CRAB-2 production ([1]; Table 2A, 10 nM alone): 2.566 +/− 0.19; % as Control [1, 3]: 574 +/− 60%; CRABP-2 production [1, 3]: 3.27 +/− 0.34; % as Control ([1]; Table 3, 10 nM alone): 266 +/− 80%; CRABP-2 production ([1]; Table 3, 10 nM alone): 1.201 +/− 0.36
CC(=O)OC/C=C(C)/C=C/C=C(C)/C=C/C1=C(C)CCCC1(C)C [Retinyl Acetate]	56	0.876 +/− 0.20	178 +/− 102%	1.01 +/− 0.58	124 +/− 42%	0.561 +/− 0.19			CRABP-2 expression in skin fibroblasts (in words) ([1]; Low levels (100 nm), either alone or in combination with resveratrol): ineffective; CRABP-2 expression in skin fibroblasts (in words) ([1]; higher levels (Table 2B), in the presence of reveratrol): stimulated CRABP-2 expression
Oc1ccc(/C=C/c2cc(O)cc(O)c2)cc1 [Resveratrol, 5-parahydroxystyryl resorcinol]							only minimal, insignificant effects		activity at 50 µM ([2]; Sus scrofa, Experiment 1, 50 μM, topical on pig skin biopsies, read-out: CRABP-2, Alone (% of control, control as 100%)): 143%; activity at 20 µM ([2]; Sus scrofa, Experiment 2, 20 μM, topical on pig skin biopsies, read-out: CRABP-2, Alone (% of control, control as 100%)): 242%; activity at 10 µM ([1]; Homo sapiens, Skin fibroblast, Table 2A, 10 μM alone, read-out: % of Control): 27%; CRAB-2 production ([1]; Table 2A, 10 μM alone): 0.416 +/− 0.12; % as Control [1, 5]: 32 +/− 1%; CRABP-2 production [1, 5]: 0.185
CCCCC/C=C\C/C=C\CCCCCCCC(=O)OC/C=C(C)/C=C/C=C(C)/C=C/C1=C(C)CCCC1(C)C [Retinyl Linoleate]		0.88 +/− 0.23	112 +/− 75%		253 +/− 127%	1.141 +/− 0.57			% of Control ([1]; Table 2A, 100 nM alone): 57 +/− 14%
CCCCCCCCCCCCCCCC(=O)OC/C=C(C)/C=C/C=C(C)/C=C/C1=C(C)CCCC1(C)C [Retinyl Palmitate]	25	0.376 +/− 0.11	503 +/− 260%	2.87 +/− 1.48	254 +/− 101%	1.143 +/− 0.45		not effective	
CC1=C(/C=C/C(C)=C/C=C/C(C)=C/CO)C(C)(C)CCC1 [Retinol]			270 +/− 73%	1.54 +/− 0.41	308 +/− 108%	1.387 +/− 0.49	significantly higher stimulation	effective	activity at 5 µM ([2]; Sus scrofa, Experiment 2, 5 μM, topical on pig skin biopsies, read-out: CRABP-2, Alone (% of control, control as 100%)): 345%
